Several values for one entry are separate records, joined by “and”; a condition that tells them apart may be missing. Equal values may be shown once. Read-outs that look alike come from different tables or passages of the source.
Experiments:
[1] = set-up: method as in PMID 30649740; settings: cited from earlier work
[2] = biological target: BRD4 bromodomains (Homo sapiens, UniProt O60885); test: NanoBRET target engagement assay, both bromodomains; type: cell-based; settings: NanoBRET
Method: (§1) The assay was performed as described previously.[17],[59] In brief, BRD4 bromodomains and full-length HDACs were obtained as plasmids cloned in-frame with a terminal NanoLuc fusion (Promega). Plasmids were transfected into HEK293T cells using FuGENE HD (Promega, E2312), and proteins were allowed to express for 20 h. Serially diluted inhibitor and the corresponding NanoBRET Tracer (Promega) at a concentration determined previously as the tracer KD, app were pipetted into white 384-well plates (Greiner #781207) for BRD assays or white 96-well plates (Corning #3600) for HDAC using an Echo acoustic dispenser (Labcyte). The corresponding protein-transfected cells were added and reseeded at a density of 2 × 10^5 cells/mL after trypsinization and resuspended in Opti-MEM without phenol red (Life Technologies). The system was allowed to equilibrate for 2 h at 37 °C/5% CO2 prior to BRET measurements. To measure BRET, NanoBRET NanoGlo substrate + Extracellular NanoLuc Inhibitor (Promega, N2540) was added as per the manufacturer’s protocol, and filtered luminescence was measured on a PHERAstar plate reader (BMG Labtech) equipped with a luminescence filter pair (450 nm BP filter (donor) and 610 nm LP filter (acceptor)). For lysed-mode NanoBRET experiments, digitonin (Promega, #G9441) was added as per the manufacturer’s instructions to a final concentration of […].

[3] = biological target: T1, BRD4 BD2 (Homo sapiens, UniProt O60885); test: DSF thermal shift assay; type: binding; set-up: purchased in-house (SGC Frankfurt recombinant bromodomain DSF panel)
Method: (§2) The effects of inhibitor binding on the apparent melting temperature of recombinant bromodomains were determined by DSF in a 96-well plate (Starlab) at a protein concentration of 2 μM with 10 μΜ compound in buffer containing 25 mM HEPES, pH 7.5, 150 mM NaCl, and 0.5 mM TCEP. […] Protein unfolding profiles were recorded using an MX3005P real-time qPCR instrument (Agilent; excitation/emission filters = 492/610 nm) while increasing the temperature from 25 to 95 °C at a heating rate of 3 °C/min. Tm values were calculated after fitting the fluorescence curves to the Boltzmann equation. Differences in melting temperature upon compound binding are given as ΔTm = Tm (protein with inhibitor) – Tm (protein with DMSO control). Measurements were performed in triplicates.

[4] = biological target: T2, BRD4 BD1 (Homo sapiens, UniProt O60885); test: DSF thermal shift assay; type: binding; set-up: purchased in-house (SGC Frankfurt recombinant bromodomain DSF panel)
Method: as §2

[5] = biological target: HDAC1 (Homo sapiens, UniProt Q13547); test: NanoBRET target engagement assay (HEK293T); type: cell-based; set-up: BRD4 bromodomains and full-length HDACs were obtained as plasmids cloned in-frame with a terminal NanoLuc fusion; host or cells: HEK293T
HDAC1, sequence (Q13547 whole entry, the tested form may be a part): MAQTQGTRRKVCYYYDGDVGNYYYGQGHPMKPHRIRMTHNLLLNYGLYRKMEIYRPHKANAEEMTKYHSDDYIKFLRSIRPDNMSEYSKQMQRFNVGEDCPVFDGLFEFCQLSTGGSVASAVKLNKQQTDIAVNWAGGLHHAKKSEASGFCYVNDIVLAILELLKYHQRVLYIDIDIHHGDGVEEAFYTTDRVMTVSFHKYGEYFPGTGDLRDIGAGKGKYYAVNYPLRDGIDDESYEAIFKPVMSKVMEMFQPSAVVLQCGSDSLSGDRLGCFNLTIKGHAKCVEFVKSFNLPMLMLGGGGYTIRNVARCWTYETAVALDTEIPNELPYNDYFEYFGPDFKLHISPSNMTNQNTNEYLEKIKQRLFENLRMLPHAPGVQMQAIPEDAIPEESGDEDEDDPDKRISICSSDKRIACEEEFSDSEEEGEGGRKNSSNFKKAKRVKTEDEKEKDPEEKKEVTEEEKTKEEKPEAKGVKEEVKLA
Method: (§3) The assay was performed as described previously.[17],[59] In brief, BRD4 bromodomains and full-length HDACs were obtained as plasmids cloned in-frame with a terminal NanoLuc fusion (Promega). Plasmids were transfected into HEK293T cells using FuGENE HD (Promega, E2312), and proteins were allowed to express for 20 h. […] The corresponding protein-transfected cells were added and reseeded at a density of 2 × 10^5 cells/mL after trypsinization and resuspended in Opti-MEM without phenol red (Life Technologies). The system was allowed to equilibrate for 2 h at 37 °C/5% CO2 prior to BRET measurements. […] For lysed-mode NanoBRET experiments, digitonin (Promega, #G9441) was added as per the manufacturer’s instructions to a final concentration of […].

[6] = biological target: HDAC2 (Homo sapiens, UniProt Q92769); test: NanoBRET target engagement assay (HEK293T); type: cell-based; set-up: BRD4 bromodomains and full-length HDACs were obtained as plasmids cloned in-frame with a terminal NanoLuc fusion; host or cells: HEK293T
HDAC2, sequence (Q92769 whole entry, the tested form may be a part): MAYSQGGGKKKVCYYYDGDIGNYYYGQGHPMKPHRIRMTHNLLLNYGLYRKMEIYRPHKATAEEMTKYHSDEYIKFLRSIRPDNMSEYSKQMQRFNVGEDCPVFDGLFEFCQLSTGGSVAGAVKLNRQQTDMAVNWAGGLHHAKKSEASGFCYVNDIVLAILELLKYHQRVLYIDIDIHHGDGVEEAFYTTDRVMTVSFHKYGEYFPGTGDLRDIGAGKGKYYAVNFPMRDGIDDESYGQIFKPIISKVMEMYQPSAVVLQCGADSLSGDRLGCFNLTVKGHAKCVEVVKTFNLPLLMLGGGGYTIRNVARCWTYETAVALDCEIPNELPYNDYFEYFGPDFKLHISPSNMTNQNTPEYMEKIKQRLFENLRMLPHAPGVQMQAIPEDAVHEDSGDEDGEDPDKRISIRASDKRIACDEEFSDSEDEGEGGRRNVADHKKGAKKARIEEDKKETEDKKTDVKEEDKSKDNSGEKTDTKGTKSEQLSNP
Method: as §3

[7] = biological target: T1, BRD4 BD2; test: NanoBRET target engagement assay (HEK293T); type: cell-based; set-up: BRD4 bromodomains and full-length HDACs were obtained as plasmids cloned in-frame with a terminal NanoLuc fusion; host or cells: HEK293T; settings: intact cells
Method: as §1

[8] = biological target: T2, BRD4 BD1; test: NanoBRET target engagement assay (HEK293T); type: cell-based; set-up: BRD4 bromodomains and full-length HDACs were obtained as plasmids cloned in-frame with a terminal NanoLuc fusion; host or cells: HEK293T; settings: intact cells
Method: as §1

[9] = system: PaTu8988T cells; test: CellTiter-Glo cell viability assay; type: cell-based; settings: Homo sapiens, PaTu 8988t, 72 h; treatment for 3 days
Method: (§4) PDAC cell line PaTu8988T was obtained from ATCC and cultured in Dulbecco’s modified Eagle’s medium (DMEM) containing 10% FBS, 25 mM glucose, […], 1 mM sodium pyruvate, and 1% penicillin–streptomycin. Nut midline carcinoma cell line HCC2429 was kindly provided by Lead Discovery Center GmbH (Dortmund, Germany) and was cultured in RPMI1640 medium containing 10% FBS, 2 mM L-glutamine, and 1% penicillin–streptomycin. Cell line PaTu8988T was authenticated using the Multiplex human Cell line Authentication Test (MCA) by Multiplexion GmbH, and cell line HCC2429 was authenticated using short tandem repeat (STR) profiling.
(§5) The assays were performed using Promega’s CellTiter-Glo Luminescent Cell Viability Assay kit (Cat. #G7571). First, compounds dissolved in DMSO were printed in 96-well plates (Corning) by using a Tecan D300e digital dispenser. Then, cells were seeded into the compound-printed plates using a Thermo Multidrop reagent dispenser. 72 h later, one volume of diluted CellTiter-Glo reagent (1:4 dilution with PBS) was added to individual wells by using the Thermo Multidrop reagent dispenser again. Plates were shaken for 2 min and incubated for 10 min in the dark. Luminescent signals were read by using a Tecan Spark Multimode Microplate Reader. The values were normalized to the DMSO control wells and presented as a percentage of cell viability. Dose–response curves were drawn with GraphPad Prism 8.

[10] = system: HCC2429 cells; test: CellTiter-Glo cell viability assay; type: cell-based; settings: Homo sapiens, HCC2429, 72 h; treatment for 3 days
Method: as §4, §5

[11] = biological target: HDAC3 (Homo sapiens, UniProt O15379); test: NanoBRET target engagement assay (HEK293T); type: cell-based; set-up: BRD4 bromodomains and full-length HDACs were obtained as plasmids cloned in-frame with a terminal NanoLuc fusion; host or cells: HEK293T; settings: intact cells
HDAC3, sequence (O15379 whole entry, the tested form may be a part): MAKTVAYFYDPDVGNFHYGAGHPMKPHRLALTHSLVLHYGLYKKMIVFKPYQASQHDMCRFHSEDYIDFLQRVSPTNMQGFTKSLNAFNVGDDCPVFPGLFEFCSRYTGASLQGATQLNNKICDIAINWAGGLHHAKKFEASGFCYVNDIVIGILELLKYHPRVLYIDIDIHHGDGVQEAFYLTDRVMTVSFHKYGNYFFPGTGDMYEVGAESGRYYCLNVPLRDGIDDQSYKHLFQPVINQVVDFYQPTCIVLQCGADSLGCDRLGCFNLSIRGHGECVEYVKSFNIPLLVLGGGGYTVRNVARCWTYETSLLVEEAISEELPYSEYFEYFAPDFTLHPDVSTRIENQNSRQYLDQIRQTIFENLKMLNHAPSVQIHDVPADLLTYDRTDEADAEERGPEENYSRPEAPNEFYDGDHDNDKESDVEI
Method: as §3

[12] = 10 μM compound, 2 μM protein, read-out: DSF ΔTm BRD4 BD2
[13] = 10 μM compound, 2 μM protein, read-out: DSF ΔTm BRD4 BD1

O=C(CCCCCCC(=O)Nc1ccccc1)NO [SAHA, suberoyl anilide hydroxamic acid]
metabolic half-life [1]: 2 h

Cn1cc(-c2ccc(C(=O)Nc3ccccc3N)nn2)c2cc[nH]c2c1=O [NB501]
fold reduced binding to BRD4 compared with NB500 [2]: about 2 fold
ΔTm at 10 µM ([3]; read-out: DSF ΔTm BRD4 BD2, 10 μM compound, 2 μM protein): 3.6 ± 0.2 °C
ΔTm at 10 µM ([4]; read-out: DSF ΔTm BRD4 BD1, 10 μM compound, 2 μM protein): 2.9 ± 0.3 °C
EC50 ([5]; intact cells): 16.8 ± 6.7 µM
EC50 ([6]; intact cells): 4.6 ± 0.6 µM
EC50 [7]: 0.29 ± 0.12 µM
EC50 [8]: 0.39 ± 0.02 µM
IC50 [9]: 8.5 ± 1.3 µM
IC50 [10]: 0.54 ± 0.06 µM

Cn1cc(-c2ccc(C(=O)Nc3ccc(F)cc3N)nc2)c2cc[nH]c2c1=O [NB507]
EC50 [11]: > 50 µM
EC50 ([5]; intact cells): 36.3 µM and 36 µM
EC50 ([5]; lysed cells (digitonin)): 8.2 ± 2.1 µM
EC50 ([6]; intact cells): 14.2 ± 4.5 µM
EC50 [7]: 0.1 ± 0.01 µM
EC50 [8]: 0.34 ± 0.1 µM
IC50 [9]: 5.2 ± 0.9 µM
IC50 [10]: 0.24 ± 0.02 µM

Cn1cc(-c2ccc(C(=O)Nc3cc(-c4ccco4)ccc3N)nc2)c2cc[nH]c2c1=O [NB513]
EC50 ([5]; intact cells): 1.3 ± 1 µM
EC50 ([6]; intact cells): 2.9 ± 1.7 µM
EC50 [7]: 0.31 ± 0.05 µM
EC50 [8]: 0.37 ± 0.05 µM
IC50 [9]: 2.6 ± 0.3 µM
IC50 [10]: 0.32 ± 0.04 µM

Cc1cc(/N=N/c2ccc(S(=O)(=O)Nc3ccccn3)cc2)c(N)cc1O [MS436, reference compound]
DSF ΔTm BRD4 BD2 ([3]; 10 μM compound, 2 μM protein): 2.9 ± 0.1 K
ΔTm at 10 µM [3, 12]: ~3 °C
ΔTm at 10 µM [4, 13]: 4 ± 0.4 °C
EC50 ([5]; intact cells): 18.8 ± 1 µM
EC50 ([5]; lysed cells (digitonin)): > 50 µM
EC50 ([6]; intact cells): > 50 µM
EC50 ([6]; lysed cells (digitonin)): > 50 µM
IC50 [9]: 10.4 ± 1.2 µM
IC50 [10]: 0.81 ± 0.15 µM

COc1cc(C(=O)Nc2ccccc2N)ccc1-c1cn(C)c(=O)c2[nH]ccc12 [NB470]
ΔTm at 10 µM [3, 12]: 4.3 ± 0.3 °C
ΔTm at 10 µM [4, 13]: 3.8 ± 0.1 °C
EC50 ([5]; intact cells): > 50 µM
EC50 ([5]; lysed cells (digitonin)): > 50 µM
EC50 ([6]; intact cells): > 50 µM
EC50 [7]: 0.23 ± 0.07 µM
EC50 [8]: 0.39 ± 0.06 µM

Cc1cc(/N=N/c2ccc(C(=O)Nc3ccccc3N)cc2)c(N)cc1O [NB161]
ΔTm at 10 µM [3, 12]: ~3 °C
DSF ΔTm BRD4 BD1 ([4]; 10 μM compound, 2 μM protein): 5.2 ± 0.3 K
ΔTm at 10 µM [4, 13]: 5.3 °C
EC50 ([5]; intact cells): 10.8 ± 5.1 µM
EC50 ([6]; intact cells): > 50 µM
